Test in all cases: Antibiogram of clinical isolate
Common to all, as to format: cell-based
Holding throughout (design): key to Interpretation: R represents “resistant”; I represents “intermediate”; S represents “sensitive”

One test deals with Escherichia coli. The conditions noted are these: multi-drug resistant veterinary clinical isolate. As for the experimental part:
(§1) Veterinary clinical isolates, including Salmonella typhimurium, multi-drug resistant Escherichia coli, methicillin-resistant Staphylococcus aureus (MRSA), and methicillin-resistant Staphylococcus pseudointermedius (MRSP), were kindly provided by Dr. H. Cai (Department of Pathobiology, University of Guelph, ON, Canada). An antibiogram for these strains is available in the supplementary text (Table S1). Gram-negative strains were cultured in Luria−Bertani (LB) broth. Gram-positive strains were cultured in Tryptic soy broth (TSB). Both cultures were grown under aerobic conditions at 37 °C.
(§2) 1 Where R represents “resistant”, I represents “intermediate” and S represents “sensitive”.
(§3) 2 MIC represents the minimal inhibitory concentration of the antibiotic in mcg/mL.
(§4) 3 mm represents the diameter zone of inhibition against antibiotic disc.

Test [1] relates to Methicillin Resistant Staphylococcus aureus. The following applies: veterinary clinical isolate. The protocol:
as §1, §2, §3, §4

In test [2] the test system is Methicillin Resistant Staphylococcus pseudointermedius. The conditions noted are these: veterinary clinical isolate. As for the experimental part: as §1, §2, §3, §4
Setting [3] is: Escherichia coli, read-out: MIC.
[4] abbreviates: Staphylococcus aureus, read-out: MIC.

Converted amounts (≈) assume the structure as drawn. Where two headings read alike, the source gives them in different places. Where only a bound is given, the exact number is not on record here.

As to `CNC(C)C1CCC(N)C(OC2C(N)CC(N)C(OC3OCC(C)(O)C(NC)C3O)C2O)O1` (stereo not drawn) [Gentamicin], the minimal inhibitory concentration (MIC) (usually the least concentration at which growth counts as inhibited) is 2.6 µg/mL (≈ 5.44 µM) in the test with Escherichia coli (setting [3]); 31 µg/mL (≈ 64.9 µM) in test [1] (setting [4]); 7.9 µg/mL (≈ 16.5 µM) in test [2] (Staphylococcus, read-out: MIC). Besides, the Interpretation entry in the test on Escherichia coli was “S”; in test [1], “R”; in test [2], “I”. Also, the “diameter zone of inhibition against antibiotic disc” value (“diameter zone of inhibition” below) in the test with Escherichia coli was 18 mm; in test [1] it was 9 mm; in test [2], 14 mm.
Turning to Trimethoprim-sulfamethoxazole, in the test with Escherichia coli, the Interpretation result is reported as “R”, the minimal inhibitory concentration (MIC) is greater than 10 µg/mL and the “diameter zone of inhibition” value was found to be 6 mm. For the same compound, in test [1], the Interpretation entry is “S”, the MIC entry was “<= 4.1 mcg/mL” and the “diameter zone of inhibition” value was 31 mm. Moreover, in test [2], the Interpretation entry is “R”, the MIC was greater than 10 µg/mL and the “diameter zone of inhibition” value is 6 mm.
Take `CN1CCN(c2cc3c(cc2F)c(=O)c(C(=O)O)cn3-c2ccc(F)cc2)CC1` [Difloxacin]: the MIC in test [1] (setting [4]) is no more than 0.07 µg/mL. Besides, in test [1], the Interpretation result was “S” and the “diameter zone of inhibition” value worked out at 30 mm.
As for Polymixin-B, in test [1], the Interpretation entry is listed as “R” and the “diameter zone of inhibition” value is reported as 9 mm.
As for `CO/N=C(\C(=O)N[C@@H]1C(=O)N2C(C(=O)O)=C(CSC(=O)c3ccco3)CS[C@H]12)c1csc(N)n1` [Ceftiofur], the MIC in test [1] (setting [4]) came out at 3.9 µg/mL (≈ 7.45 µM). Also, in test [1], the Interpretation result was “R” and the “diameter zone of inhibition” value is 19 mm.
The like results for `C[C@@H](O)[C@H]1C(=O)N2C(C(=O)O)=C(SCCN=CN)C[C@H]12` [Imipenem] were, in that order, no more than 0.56 µg/mL, “R” and 39 mm.
As for `CCN1CCN(c2cc3c(cc2F)c(=O)c(C(=O)O)cn3C2CC2)CC1` [Enrofloxacin], the MIC was greater than 18 µg/mL with Escherichia coli (setting [3]); no more than 0.099 µg/mL in test [1] (setting [4]); greater than 19 µg/mL in test [2] (Staphylococcus, read-out: MIC). Also, the Interpretation result in the test on Escherichia coli was “R”; in test [1], “S”; in test [2], “R”. Further, the “diameter zone of inhibition” value in the test with Escherichia coli was determined as 7 mm; in test [1], 29 mm; in test [2], 6 mm.
`CC(C)(O/N=C(\C(=O)N[C@@H]1C(=O)N2C(C(=O)[O-])=C(C[n+]3ccccc3)CS[C@H]12)c1csc(N)n1)C(=O)O` [Ceftazidime]: the minimal inhibitory concentration (MIC) in test [1] (setting [4]) came out at 41 µg/mL (≈ 75 µM). In addition, in test [1], the Interpretation entry is “R” and the “diameter zone of inhibition” value amounted to 13 mm.
Turning to `C[C@@H]1CN(c2c(F)c(F)c3c(=O)c(C(=O)O)cn(C4CC4)c3c2F)C[C@H](C)N1` [Orbifloxacin], the MIC with Escherichia coli (setting [3]) is greater than 40 µg/mL; in test [1] (setting [4]), 0.25 µg/mL (≈ 0.632 µM); in test [2] (Staphylococcus, read-out: MIC) it was greater than 40 µg/mL. In addition, the Interpretation result in the test on Escherichia coli was “R”; in test [1] it was “S”; in test [2] it was “R”. Also, the “diameter zone of inhibition” value is reported as 6 mm in the test with Escherichia coli, 27 mm in test [1] and 6 mm in test [2].
`CC1(C)S[C@@H]2[C@H](NC(=O)[C@H](C(=O)O)c3ccsc3)C(=O)N2[C@H]1C(=O)O` [Ticarcillin]: in test [1], the Interpretation entry was “R” and the “diameter zone of inhibition” value was 14 mm.
Titracillin-clavulanate: in test [1], the Interpretation result is “R” and the “diameter zone of inhibition” value amounted to 15 mm.
Regarding `Cc1onc(-c2ccccc2)c1C(=O)N[C@@H]1C(=O)N2[C@@H]1SC(C)(C)[C@@H]2C(=O)O` [Oxacillin], the Interpretation entry in test [1] and in test [2] was “R” throughout. Besides, the “diameter zone of inhibition” value in test [1] is on record as 6 mm; in test [2] it was 14 mm. Moreover, in test [2] (Staphylococcus, read-out: MIC), the minimal inhibitory concentration (MIC) is 1.8 µg/mL (≈ 4.48 µM).
As for `C=CC1=C(C(=O)O)N2C(=O)[C@@H](NC(=O)/C(=N\OCC(=O)O)c3csc(N)n3)[C@H]2SC1` [Cefixime], the minimal inhibitory concentration (MIC) in test [1] (setting [4]) was greater than 26 µg/mL. Besides, in test [1], the Interpretation result was “R” and the “diameter zone of inhibition” value was 6 mm.
As to `NCC[C@H](O)C(=O)N[C@@H]1C[C@H](N)[C@@H](O[C@H]2O[C@H](CN)[C@@H](O)[C@H](O)[C@H]2O)[C@H](O)[C@H]1O[C@H]1O[C@H](CO)[C@@H](O)[C@H](N)[C@H]1O` [Amikacin], the minimal inhibitory concentration (MIC) in test [1] (setting [4]) was 9.5 µg/mL (≈ 16.2 µM). In test [1], the Interpretation entry was “S” and the “diameter zone of inhibition” value came to 18 mm.
For the compound `CC1(C)S[C@@H]2[C@H](NC(=O)[C@H](N)c3ccccc3)C(=O)N2[C@H]1C(=O)O` [Ampicillin], the minimum inhibitory concentration (MIC) in the test on Escherichia coli (setting [3]) is greater than 46 µg/mL; in test [1] (setting [4]) it was 19 µg/mL (≈ 54.4 µM); in test [2] (Staphylococcus, read-out: MIC), 12 µg/mL (≈ 34.3 µM). Also, the Interpretation result (in the test on Escherichia coli; in test [1]; in test [2]) was “R” in each case. In addition, the “diameter zone of inhibition” value in the test with Escherichia coli stood at 6 mm; in test [1], 11 mm; in test [2] it was 13 mm.
Take `CCC[C@@H]1C[C@@H](C(=O)N[C@@H]([C@H]2O[C@H](SC)[C@H](O)[C@@H](O)[C@H]2O)[C@H](C)Cl)N(C)C1` [Clindamycin]: the MIC in test [1] (setting [4]) is greater than 10 µg/mL; in test [2] (Staphylococcus, read-out: MIC) it was greater than 10 µg/mL. Further, the Interpretation result in test [1] and in test [2] was “R” each time. In addition, the “diameter zone of inhibition” value was 6 mm in test [1] and 7 mm in test [2].
Regarding `CO[C@@]1(NC(=O)Cc2cccs2)C(=O)N2C(C(=O)O)=C(COC(N)=O)CS[C@@H]21` [Cefoxitin], in the test on Escherichia coli (setting [3]), the MIC was greater than 69 µg/mL. Also, the Interpretation result (with Escherichia coli; in test [2]) was “R” in each case. The “diameter zone of inhibition” value with Escherichia coli is recorded as 6 mm; in test [2], 24 mm.
In the case of `CN1CCN(c2c(F)cc3c(=O)c(C(=O)O)cn4c3c2OCN4C)CC1` [Marbofloxacin], the Interpretation entry in the test on Escherichia coli is recorded as “R”; in test [1] it was “S”; in test [2], “R”. Besides, the entries for the “diameter zone of inhibition” value (in the test with Escherichia coli; in test [1]; in test [2]) were 6 mm, 27 mm and 6 mm, respectively.
In the case of `CO/N=C(/C(=O)N[C@@H]1C(=O)N2C(C(=O)O)=C([C@@H]3CCCO3)CS[C@H]12)c1csc(N)n1` [Cefovecin], in the test on Escherichia coli, the Interpretation result is recorded as “R” and the “diameter zone of inhibition” value worked out at 6 mm. Further, in test [2], the Interpretation entry is given as “R” and the “diameter zone of inhibition” value was determined as 21 mm.
Consider `CC(=O)OCC1=C(C(=O)O)N2C(=O)[C@@H](NC(=O)Cc3cccs3)[C@H]2SC1` [Cephalothin], for which the minimal inhibitory concentration (MIC) in the test on Escherichia coli (setting [3]) is greater than 101 µg/mL; in test [1] (setting [4]), 2.2 µg/mL (≈ 5.55 µM); in test [2] (Staphylococcus, read-out: MIC), 1.4 µg/mL (≈ 3.53 µM). For the same compound, the Interpretation entry (with Escherichia coli; in test [1]; in test [2]) was “R” in each case. Besides, the results for the “diameter zone of inhibition” value (with Escherichia coli; in test [1]; in test [2]) were 6 mm, 25 mm and 27 mm, respectively.
On to `O=C(N[C@H](CO)[C@H](O)c1ccc([N+](=O)[O-])cc1)C(Cl)Cl` [Chloramphenicol], for which the MIC in test [1] (setting [4]) is 4.5 µg/mL (≈ 13.9 µM). Moreover, in test [1], the Interpretation entry is “S” and the “diameter zone of inhibition” value was 26 mm.
On to `CCN1CCN(C(=O)N[C@@H](C(=O)N[C@@H]2C(=O)N3[C@@H]2SC(C)(C)[C@@H]3C(=O)O)c2ccccc2)C(=O)C1=O` [Piperacillin], for which, in test [1], the Interpretation result is on record as “R” and the “diameter zone of inhibition” value is listed as 12 mm.
On to `CC1(C)S[C@@H]2[C@H](NC(=O)C(C(=O)O)c3ccccc3)C(=O)N2[C@H]1C(=O)O` (stereo partly drawn) [Carbenicillin], for which, in test [1], the Interpretation entry is listed as “R” and the “diameter zone of inhibition” value was found to be 15 mm.
`CN(C)[C@@H]1C(O)=C(C(N)=O)C(=O)[C@@]2(O)C(O)=C3C(=O)c4c(O)cccc4[C@@](C)(O)[C@H]3C[C@@H]12` [Tetracycline]: the minimal inhibitory concentration (MIC) in the test with Escherichia coli (setting [3]) was 16 µg/mL (≈ 36 µM); in test [1] (setting [4]), 0.42 µg/mL (≈ 0.945 µM); in test [2] (Staphylococcus, read-out: MIC), greater than 33 µg/mL. For the same compound, the Interpretation result in the test on Escherichia coli is reported as “R”; in test [1] it was “S”; in test [2], “R”. Also, the “diameter zone of inhibition” value with Escherichia coli was 13 mm; in test [1], 31 mm; in test [2], 8 mm.
Regarding Amoxicillin-clavulanate, in the test with Escherichia coli, the Interpretation result was “R”, the MIC was greater than 64 µg/mL and the “diameter zone of inhibition” value is listed as 8 mm. In test [1], the Interpretation result is “R”, the MIC is 14 µg/mL and the “diameter zone of inhibition” value was 16 mm. Also, in test [2], the Interpretation result was “R”, the minimal inhibitory concentration (MIC) was 2.9 µg/mL and the “diameter zone of inhibition” value is 24 mm.

The values above are taken from paper PMC7407491, “The Addition of a Synthetic LPS-Targeting Domain Improves Serum Stability While Maintaining Antimicrobial, Antibiofilm, and Cell Stimulating Properties of an Antimicrobial Peptide” (Biomolecules, 2020).
